Test results reported in PubChem BioAssay AID540258 (Broad Institute, 2011).
Active and inactive are the calls of the source.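 The calls were made as follows: active = fitted curve reaching 40% activation at or below the top valid dose tested; inconclusive = flat curve at 30 to 70% activation, or poor fit; inactive = the rest.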

What follows are compounds tested on SK-MEL-5 TRPM1 promoter luciferase reporter, 24 h (assay: MITF activators via TRPM1 promoter reporter, dose response, SK-MEL-5 cells, luciferase, cherry-pick samples (AID 540258);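 also: potency for activators that raise TRPM1 promoter luciferase signal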).

Row | SMILES | AC40
1 | CCSc1nnc(NC(=O)NC2CCCCC2)s1 | > 35 µM (inactive)
2 | CC1(C)CNC(=O)c2sc(NC(=O)c3ccccc3)nc2C1 | 21.9 µM
3 | Nc1ccc(C#Cc2ccc3c(=O)c4ccccc4oc3c2)cc1 | 4.44 µM
4 | Cc1cccc(-c2noc(Cc3ccccc3)n2)c1 | 2.93 µM
5 | Cc1ccc(Nc2ncnc3ccccc23)cc1 | 2.23 µM
6 | O=C(NC1CC1)c1sc2cc(Cl)ccc2c1Cl | 4.59 µM
7 | CC(=O)c1cccc(OCc2cc(C(=O)N(C)Cc3cnccn3)no2)c1 | 9.27 µM
8 | Cc1ccc2cc(/C=N/Nc3ccc(C(=O)O)cc3)c(Cl)nc2c1 | 1.37 µM
9 | CN(CCC#N)C(=O)c1cc2c(s1)-c1ccccc1SC2 | 3.23 µM
10 | Cc1cccc(OC(=O)c2sc3ncn(C)c(=O)c3c2C)c1 | 6.16 µM
11 | NC(=O)c1ccc(-c2noc(-c3cccc(Cl)c3)n2)cc1 | 3.8 µM
12 | CCCc1cc(C(=O)Nc2cc(Cl)ccc2O)no1 | 2.99 µM
13 | Cc1ccc2c(CN3CCC(C)CC3)cc(=O)oc2c1C | 8.33 µM
14 | CCCc1cc(C(=O)Nc2ccc(C(=O)OC)cc2)cs1 | 16.2 µM
15 | O=C(OCc1csc(-c2ccccc2)n1)c1ccc(O)cc1 | 7.95 µM
16 | Nc1ccc(-c2nnc(-c3ccc(N)cc3)o2)cc1 | 2.45 µM
17 | CN1C(=O)NC(=O)C(C)(C2=CCCCC2)C1=O (stereo not given) | > 35 µM (inactive)
18 | O=C(Nc1cccc(F)c1)NC1CCCCCCC1 | 6.52 µM
19 | Clc1ccc(-c2cn3c(n2)CCC3)cc1 | > 35 µM (inactive)
20 | COc1cc2sc3cc(NCC[C@@H]4CCCN4C)ccc3c(=O)c2cc1OC | 5.18 µM
21 | CSc1ccc(CNc2ccc(Cl)cc2)cc1 | 5.67 µM
22 | c1ccc(Nc2ccc(Nc3ccccc3)cc2)cc1 | 23.7 µM
23 | CNC(=O)C(=O)Nc1nc(C23CC4CC(CC(C4)C2)C3)cs1 | 16.6 µM
24 | Nc1ccc2cc3ccccc3cc2c1 | 2.88 µM
25 | Cc1ccc(NC(=O)c2ccc3ccccc3n2)cc1S(=O)(=O)N(C)C | 2.37 µM
26 | Cc1cnc(NC(=O)Nc2ccc(Cl)cc2)s1 | 1.38 µM

Row | SMILES | AC40
27 | Cn1c2ccccc2c(=O)c2cc(C#Cc3ccccn3)ccc21 | > 35 µM (inactive)
28 | COc1ccc2c(c1OC)C(=O)OC2Nc1nc(-c2cc3cc(Br)ccc3oc2=O)cs1 (stereo not given) | 0.915 µM
29 | Cc1ccc(NC(=O)Nc2ccc3c(c2)OCO3)c(OC(F)F)c1 | 2.14 µM
30 | O=C(Nc1ccccc1O)c1cc2cc(Br)ccc2oc1=O | 2.18 µM
31 | CCc1ccc(C(=O)NC2CCCCC2)s1 | 2.95 µM
32 | CC(C)Cc1cc(C(=O)Nc2ccc(Br)cc2)no1 | 1.8 µM
33 | Cc1csc2nc(CSc3nc4ccccc4o3)c(Br)n12 | 1.35 µM
34 | O=C(Cc1ccccc1)Nc1ccc2c(c1)OC1(CCCC1)O2 | 3.23 µM
35 | CC(C)c1ccc(NC(=O)Cn2ncc3ccccc32)cc1 | 6.86 µM
36 | Cc1ccc(CONC(=O)c2ccc(C)cc2)cc1 | 6.05 µM
37 | c1ccc(CSc2ccc(-c3ccc4c(c3)OCO4)nn2)cc1 | 2.38 µM
38 | Cc1cc2c([nH]c3ccccc32)c2c1OC(C)(C)C=C2 | 3.8 µM
39 | Cc1ccc(C(=O)Nc2ncccc2S(=O)(=O)c2ccccc2)cc1 | 2.94 µM
40 | COc1ccc2cc(-c3nc4ccccc4n3C)c(=O)oc2c1 | 1.92 µM
41 | Cc1nc(COC(=O)c2c(C)nn(-c3ccccc3)c2C)cs1 | 21.1 µM
42 | Cc1ccc(Nc2cc(C)nc(-c3ccccc3)n2)cc1 | 2.33 µM
43 | CC1(C)CN=c2s/c(=C\c3ccc(Cl)cc3)c(=O)n2C1 | 1.21 µM
44 | Oc1nc(Nc2ccccc2)sc1/C=C1\C=Nc2ccccc21 | 9.81 µM
45 | O=C(CC(Nc1ccccc1)C(=O)O)c1ccccc1 (stereo not given) | 0.749 µM
46 | O=C(NC1CCCC1)c1cc(-c2ccc(Cl)cc2Cl)on1 | 0.393 µM
47 | Cc1ccsc1CCNC(=O)C1CCC(=O)N(CCc2cccc(F)c2)C1 (stereo not given) | 6.83 µM
48 | COc1cccc(C(=O)Nc2nnc(-c3ccccc3)s2)c1 | 3.57 µM
49 | Cn1cccc1C(=O)N/N=C/c1c(Cl)cccc1Cl | 1.47 µM
50 | COc1ccc(NC(C)=O)cc1S(=O)(=O)Nc1ccccc1C(=O)NCCc1ccccc1 | > 35 µM (inactive)
51 | COc1ccc(-c2cn3cccc(C)c3n2)cc1F | 0.565 µM
52 | Fc1ccccc1COc1ccc(C(=S)N2CCCC2)cc1 | 4.34 µM

Row | SMILES | AC40
53 | CCc1ccc(NC(=O)C(=S)NC2CCCCC2)cc1 | 0.542 µM
54 | CN1C(=O)C2C=CC1C1C(=O)N(c3ccccc3)C(=O)C21 (stereo not given) | 1.89 µM
55 | Cc1ccc(NCCC(=O)c2cccs2)cc1C | 6.77 µM
56 | COc1ccc(NC(=O)c2ccc3[nH]c(C)c(C)c3c2)cc1 | 22.4 µM
57 | C/C(=N/OC(=O)CC(C)C)c1cc(-c2ccc(Cl)cc2)no1 | 2.65 µM
58 | O=C1C(=O)N(c2ccccc2)P(=O)(N(CCCl)CCCl)N1c1ccccc1 | 16.1 µM
59 | COc1cccc(Nc2ccc(N3CCCCC3)cc2)c1OC | 1.48 µM
60 | COCc1ccc(-c2c(-c3ccc(OC)cc3)oc(=O)c3cc(OC)c(OC)cc23)cc1 | 3.05 µM
61 | CCCn1nnc(NC(=O)c2ccc(-c3ccccc3)cc2)n1 | 2.69 µM
62 | CC(C)Nc1oc(-c2cccc3ccccc23)nc1C#N | 9.14 µM
63 | Nc1ccc(Oc2cc(N)cc(Oc3ccccc3)c2)cc1 | 4.99 µM
64 | COc1ccc(NC(=S)c2ccccc2)cc1 | 3.97 µM
65 | CC1CCC(NC(=O)c2cc3ccccc3cc2O)CC1 (stereo not given) | 2.64 µM
66 | CCCc1nc2ccc(NC(C)=O)cc2c(=O)n1Cc1ccc(Cl)cc1 | 2.92 µM
67 | O=C(c1cc(COc2ccc(F)cc2Cl)on1)N1CCCCCC1 | 1.67 µM
68 | COc1ccc(/C=C/c2nc3ccccc3n2Cc2ccc(OC)c(OC)c2)cc1 | 1.93 µM
69 | CC(=O)c1cnc2nc(SCc3ccccc3)nn2c1C | 2.29 µM
70 | COC(=O)C1CCc2c(ccc3c2CCCC3)C1=O (stereo not given) | 2.03 µM
71 | CSc1nc2ccc(NC(=O)c3cccs3)cc2s1 | 2.16 µM
72 | CC(=O)Nc1c(-c2ccc3ccccc3c2)nc2ccccn12 | 9.16 µM
73 | CC1CCc2nc(NC(=O)Cc3cccs3)sc2C1 (stereo not given) | 2.63 µM
74 | CC(NC(=O)c1cc(COc2ccccc2)on1)c1nccs1 (stereo not given) | 0.721 µM
75 | Cc1nn(C(=O)c2cccs2)c(N)c1-c1ccccc1 | 1.38 µM
76 | Cn1c(SCc2ccccc2Cl)nc2ccccc21 | 0.794 µM
77 | COc1ccc(-c2cc(=NCCC(=O)O)c3cc(C)ccc3o2)cc1 | 3.33 µM
78 | CNC(=O)c1ccc(-c2cc3onc(-c4ccccc4)c3c(=O)n2C)cc1 | 6.96 µM

Row | SMILES | AC40
79 | CCCc1cc2c(=O)c(-c3ccccn3)coc2cc1OC | 1.81 µM
80 | NC(=O)c1cnn(-c2cc(Oc3ccccc3)ncn2)c1N | 2.88 µM
81 | CSc1nccc(N/N=C/c2ccccc2)n1 | 0.491 µM
82 | CC1CCN(C(=O)c2cc(-c3ccccc3O)on2)CC1 | 0.383 µM
83 | CN(C)S(=O)(=O)c1cccc(-c2nnc(-c3ccccc3)o2)c1 | 8.86 µM
84 | O=C(NC1CCCCCC1)c1c(O)c2ccccc2[nH]c1=O | 1.1 µM
85 | CCCn1nnc2sc3c(c2c1=O)CCC(C)C3 (stereo not given) | 3.32 µM
86 | Cc1ccc(/C=N/N2C(=O)c3ccccc3NC2c2ccc(C)cc2)cc1 (stereo not given) | 20.5 µM
87 | COc1c(C)cccc1C(=O)Nc1ccc(N2CCN(S(C)(=O)=O)CC2)cc1 | 4.98 µM
88 | C=CCC1(CC=C)CCCN1C(=O)C1CCC(=O)N(CCc2ccccc2)C1 (stereo not given) | 7.52 µM
89 | CCc1ccc(NC(=O)c2cc(-c3cccs3)on2)cc1 | 12.3 µM
90 | c1ccc(CSCc2nc3ccccc3[nH]2)cc1 | 6.65 µM
91 | C/C(=N\O)c1ccc(N2C(=O)C3CC=C(Cl)CC3C2=O)cc1 (stereo not given) | 3.5 µM
92 | CCCn1ncc2c(Nc3ccc(C)c(C)c3)ncnc21 | 4.16 µM
93 | CCN(CC)C(=O)c1cc2sc3ccccc3c2s1 | 2.42 µM
94 | CCC(=O)Nc1sc(C(=O)Nc2ccccc2F)c(C)c1C(=O)OC | 0.568 µM
95 | O=C(Nc1ccc(Br)cc1F)c1ccc2nsnc2c1 | 1.31 µM
96 | Clc1ccc(-n2nnc(-c3cccnc3Cl)n2)cn1 | 3.3 µM
97 | COc1ccccc1C(=O)NCCC(=O)NC1CCC(C)CC1 (stereo not given) | 3.62 µM
98 | COc1ccc2c(c1)CC/C(=C\Nc1ccc3c(c1)OCO3)C2=O | 2.3 µM
99 | Cc1ccc(-c2noc(C3CCCCC3)n2)cc1 | 1.68 µM
100 | c1cncc(-c2nc3ccccc3s2)c1 | 3.8 µM
101 | O=S(=O)(c1ccccc1)n1ccc(-c2cnc(-c3ccccc3)s2)n1 | 7.87 µM
102 | Clc1ccc(-c2nnc(CCc3ccccc3)o2)c(Cl)c1 | 2.55 µM
103 | COc1ccc(-c2cc(C(=O)Nc3ccccc3F)on2)cc1 | 2.53 µM
104 | CC(C)c1ccc(NC(=O)c2snc3ccc(Cl)cc23)cc1 | 1.11 µM

Row | SMILES | AC40
105 | CC1CCCC(C)N1C(=O)c1cc(-c2ccc3c(c2)OCO3)on1 (stereo not given) | 1.25 µM
106 | c1ccc2c(-c3csc(-c4ccncc4)n3)c[nH]c2c1 | 2.93 µM
107 | O=C(Nc1ccccn1)c1ccccc1 | 14.8 µM
108 | O=C(c1ccc(F)cc1)c1ccc(N2CCCCC2)cc1 | 1.49 µM
109 | COc1ccc2cc(-c3csc(-c4cccnc4)n3)ccc2c1 | 2.09 µM
110 | Clc1ccc(-c2ccc(SCc3ccccn3)nn2)cc1 | 2.39 µM
111 | Cc1ccc(C)c(NC(=O)c2cc(-c3cc(C)ccc3O)n[nH]2)c1 | 3.03 µM
112 | c1ccc(-c2ccc3sccc3n2)cc1 | 1.52 µM
113 | COc1cc(/C=C2\SC(=S)N(Nc3ccccc3)C2=O)ccc1O | 3.01 µM
114 | CCC(=O)c1ccc(OCc2ccccc2)c(OC)c1 | 2.57 µM
115 | COc1ccc2[nH]c(-c3ccccc3)cc2c1 | 0.977 µM
116 | O=c1c(-c2nc3ccccc3s2)cccn1Cc1ccccc1 | 0.945 µM
117 | O=C(NOCc1ccccc1)OCc1ccccc1 | 6.91 µM
118 | COc1ccc(-c2csc(-n3cccn3)n2)cc1 | 1.1 µM
119 | C=CCn1cccc(C(=O)Nc2ccc(Cl)cc2)c1=O | > 11 µM (inactive)
120 | Cc1ccnc(NC(=O)c2ccc(S(=O)(=O)N3CCC(C)CC3)cc2)c1 | 7.76 µM
121 | Cc1cc(C)c2nc(NCc3ccccc3O)sc2c1 | 19 µM
122 | Cc1cc(NC(=O)Nc2ccc3c(ccn3C)c2)sn1 | 7.89 µM
123 | CCCN(Cc1ccc(C)cc1)C(=O)c1ccc(CNS(=O)(=O)c2ccc(C(C)=O)cc2)cc1 | > 35 µM (inactive)
124 | Clc1cnc(N/N=C/c2cccs2)c(Cl)c1 | 3.62 µM
125 | Cc1nc2ccccc2nc(=O)c1NNc1ccccc1 | 3.99 µM
126 | C/C(=N/OCc1ccc(Br)cc1)c1ccccn1 | 0.336 µM
127 | Nc1nc2ccccc2cc1-c1cccs1 | 6.26 µM
128 | CC(=O)c1ccc(NC(=O)Nc2ccc3c(c2)nc(C)n3C)cc1 | 31.2 µM
129 | COc1ccc(Nc2nc(N)c3ccccc3n2)c(OC)c1 | 2.4 µM
130 | COc1ccc2c(c1)oc(=O)c1cc(OC)ccc12 | 3.88 µM
